This note sets out measurements from ChEMBL document CHEMBL1201862, “PubChem BioAssay data set” (2004).

Usually EC50 stands for the concentration that produces a half-maximal response. As a reminder, the AC50 is the concentration at which the activity in the assay is half-maximal. As a reminder, the IC50 is the concentration needed to halve the response being measured.

Assay [1] is described as follows: inhibitors of intracellular T. cruzi replication, confirmation, NIH3T3 host cells, beta-gal luminescence (AID 2044).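 Also: intracellular parasites grown in NIH/3T3 mouse fibroblasts as host cells; luminescent beta-galactosidase reporter signal from transgenic T. cruzi replicating inside host cells; inhibitors lower the luminescence signal.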 The assay is classed as functional, cell-based.
The nature of assay [2]: Luminescence Cell-Based Dose Retest to Confirm Inhibitors of Cancer Stem Cells. [Related pubchem assays (depositor defined):AID2717, AID2721]. The format is functional. Particulars: Homo sapiens.
Assay [3] can be described thus: cytotoxicity toward NIH3T3 fibroblasts, dose response, counter-screen, cell-based, ATP luminescence, mouse fibroblasts (AID 2010).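 Also: cells exposed to compound for about 90 hours before reading.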 The format is functional. For orientation: A counterscreen serves to expose hits that act by an unwanted route or on another target.
For assay [4], the target named is T1, Heat shock factor protein 1 (Mus musculus, UniProt P38532).
T1 sequence (P38532 whole entry): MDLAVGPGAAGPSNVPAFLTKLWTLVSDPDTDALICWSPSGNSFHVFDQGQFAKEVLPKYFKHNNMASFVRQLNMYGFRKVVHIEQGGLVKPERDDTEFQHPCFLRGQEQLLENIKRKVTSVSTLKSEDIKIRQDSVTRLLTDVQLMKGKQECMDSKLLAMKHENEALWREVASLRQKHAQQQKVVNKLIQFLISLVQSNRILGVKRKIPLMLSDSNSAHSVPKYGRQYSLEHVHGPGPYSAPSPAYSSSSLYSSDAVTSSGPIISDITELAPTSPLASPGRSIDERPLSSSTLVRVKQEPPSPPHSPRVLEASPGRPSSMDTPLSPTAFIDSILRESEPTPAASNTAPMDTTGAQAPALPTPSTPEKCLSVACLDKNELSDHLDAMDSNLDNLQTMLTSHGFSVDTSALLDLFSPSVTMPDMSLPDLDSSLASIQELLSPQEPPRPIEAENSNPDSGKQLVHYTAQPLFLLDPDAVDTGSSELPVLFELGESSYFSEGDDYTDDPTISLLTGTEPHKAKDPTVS
Nature of the assay: HSF1 potentiators in luciferase reporter cells, confirmation, cell-based, NIH3T3, luminescence, dose retest (AID 435004).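 Also: stress induced by proteasome inhibitor MG132 added 30 min after compound; luciferase reporter driven by HSF1 response element in NIH3T3 cells; actives raise luminescence as potentiators of the MG132 stress response.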 The format is functional.

The target in assay [5] is T2, Replicative DNA helicase DnaB (Mycobacterium tuberculosis, UniProt P9WMR3).
T2 sequence (P9WMR3 whole entry): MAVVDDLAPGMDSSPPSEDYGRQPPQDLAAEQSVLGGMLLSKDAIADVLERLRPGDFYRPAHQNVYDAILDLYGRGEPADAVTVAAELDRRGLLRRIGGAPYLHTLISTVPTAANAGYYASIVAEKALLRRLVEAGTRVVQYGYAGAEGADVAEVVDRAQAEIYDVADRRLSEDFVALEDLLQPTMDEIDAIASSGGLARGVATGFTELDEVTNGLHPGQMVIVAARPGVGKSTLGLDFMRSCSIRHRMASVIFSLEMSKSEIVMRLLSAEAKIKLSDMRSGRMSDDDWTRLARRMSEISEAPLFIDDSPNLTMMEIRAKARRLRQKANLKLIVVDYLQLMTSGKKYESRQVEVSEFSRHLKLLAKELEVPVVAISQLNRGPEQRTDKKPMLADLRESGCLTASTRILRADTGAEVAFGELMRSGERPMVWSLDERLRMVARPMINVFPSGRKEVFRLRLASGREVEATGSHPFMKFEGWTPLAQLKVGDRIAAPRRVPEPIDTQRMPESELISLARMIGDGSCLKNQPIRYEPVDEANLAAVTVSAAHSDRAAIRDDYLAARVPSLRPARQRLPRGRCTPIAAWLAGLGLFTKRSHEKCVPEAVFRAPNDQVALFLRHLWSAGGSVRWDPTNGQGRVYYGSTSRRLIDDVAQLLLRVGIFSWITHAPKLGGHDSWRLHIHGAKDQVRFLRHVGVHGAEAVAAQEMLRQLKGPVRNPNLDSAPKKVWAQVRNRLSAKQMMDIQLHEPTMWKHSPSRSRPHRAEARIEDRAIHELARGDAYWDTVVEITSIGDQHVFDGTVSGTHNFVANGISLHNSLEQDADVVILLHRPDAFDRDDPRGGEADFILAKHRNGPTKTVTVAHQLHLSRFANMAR
Nature of the assay: DnaB intein splicing inhibitors, dose response, biochemical, cell-free fluorescence (AID 449749). The format is functional.

The target in a further assay is T3, Protein RecA (Mycobacterium tuberculosis, UniProt P9WHJ3).
T3 sequence (P9WHJ3 whole entry): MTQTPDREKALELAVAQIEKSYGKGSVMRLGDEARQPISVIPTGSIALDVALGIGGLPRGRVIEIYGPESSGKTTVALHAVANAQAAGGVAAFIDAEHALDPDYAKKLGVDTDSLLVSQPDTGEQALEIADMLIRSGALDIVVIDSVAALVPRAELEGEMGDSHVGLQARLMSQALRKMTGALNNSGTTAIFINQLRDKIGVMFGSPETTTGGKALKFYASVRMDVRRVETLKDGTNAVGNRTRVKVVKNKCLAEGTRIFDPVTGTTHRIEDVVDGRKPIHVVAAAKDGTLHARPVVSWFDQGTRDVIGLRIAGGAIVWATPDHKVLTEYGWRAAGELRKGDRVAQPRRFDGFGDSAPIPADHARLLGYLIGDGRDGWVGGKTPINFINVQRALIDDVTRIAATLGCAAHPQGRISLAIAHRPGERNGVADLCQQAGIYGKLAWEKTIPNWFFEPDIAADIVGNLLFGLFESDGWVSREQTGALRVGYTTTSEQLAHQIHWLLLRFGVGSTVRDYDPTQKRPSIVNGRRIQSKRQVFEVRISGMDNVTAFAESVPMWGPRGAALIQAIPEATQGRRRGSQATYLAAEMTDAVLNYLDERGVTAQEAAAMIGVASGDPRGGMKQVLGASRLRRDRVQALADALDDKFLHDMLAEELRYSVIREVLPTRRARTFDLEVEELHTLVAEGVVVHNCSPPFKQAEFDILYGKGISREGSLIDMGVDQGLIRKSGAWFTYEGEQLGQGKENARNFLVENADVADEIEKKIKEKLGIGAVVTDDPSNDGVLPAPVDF
Nature of the assay: Fluorescence Cell-Free Homogeneous Dose Retest to Identify Inhibitors of RecA-Intein Splicing Activity. [Related pubchem assays (depositor defined):AID2097, AID2223, AID489010, AID492950]. The format is functional.

Another assay relates to INS1. Nature of the assay: beta cell apoptosis inhibitors, cytokine rescue, dose response, luminescence, retest (AID 449756).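 Also: cell death triggered by IL-1 beta plus TNF-alpha plus IFN-gamma mixture; protective hits raise ATP signal compared with cytokine alone wells.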 The assay is classed as functional, cell-based. Particulars: Rattus norvegicus.
Assay [6] has as its target Luciferin 4-monooxygenase (Photinus pyralis, UniProt P08659). Nature of the assay: firefly luciferase enzyme inhibitors, dose response, biochemical, luminescence (AID 1891).
The nature of assay [7]: Luminescence Cell-Based Dose Confirmation HTS to Identify Inhibitors of Platelet Dense Granule Release. [Related pubchem assays: 1663 (Primary HTS), 1678 (Summary of Project)]. The format is functional.
The target in a further assay is Cytochrome P450 2C9 (Homo sapiens, UniProt P11712).
Another assay concerns the target Cytochrome P450 2C19 (Homo sapiens, UniProt P33261). Nature of the assay: Cytochrome panel assay with activity outcomes. Panel member name: p450-cyp2c19 Compounds with AC50 equal or less than 10 uM are considered active. The settings on record: read-out: AC50. The assay is classed as functional.
In the next assay the target is Cytochrome P450 3A4 (Homo sapiens, UniProt P08684).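 Also: CYP3A4 tested as one member of a cytochrome P450 panel screen.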
A short description of assay [8]: microbe, parasite or virus in culture. The assay is classed as functional. The settings on record: Mycobacterium tuberculosis.
Assay [9] has as its target T4, Rac GTPase-activating protein 1 (Homo sapiens, UniProt Q9H0H5).
T4 sequence (Q9H0H5 whole entry): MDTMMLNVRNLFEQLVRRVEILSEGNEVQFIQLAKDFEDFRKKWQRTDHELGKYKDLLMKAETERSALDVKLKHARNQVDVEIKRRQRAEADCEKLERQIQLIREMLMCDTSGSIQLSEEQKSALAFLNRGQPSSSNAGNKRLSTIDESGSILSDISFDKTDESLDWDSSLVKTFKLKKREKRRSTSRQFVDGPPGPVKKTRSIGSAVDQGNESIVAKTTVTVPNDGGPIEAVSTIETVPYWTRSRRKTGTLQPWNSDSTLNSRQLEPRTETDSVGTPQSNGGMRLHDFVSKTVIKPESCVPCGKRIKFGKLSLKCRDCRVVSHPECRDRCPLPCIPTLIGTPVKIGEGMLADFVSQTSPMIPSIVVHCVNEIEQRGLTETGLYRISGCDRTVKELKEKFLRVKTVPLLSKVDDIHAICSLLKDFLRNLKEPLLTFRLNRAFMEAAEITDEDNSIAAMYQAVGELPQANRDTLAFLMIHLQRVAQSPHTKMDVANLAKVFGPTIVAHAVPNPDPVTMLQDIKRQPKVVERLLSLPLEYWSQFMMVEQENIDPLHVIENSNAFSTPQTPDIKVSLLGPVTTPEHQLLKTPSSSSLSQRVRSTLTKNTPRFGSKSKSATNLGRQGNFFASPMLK
Nature of the assay: MgcRacGAP GTPase-activating activity inhibitors, confirmation, biochemical, ADP Hunter fluorescence, primary and confirmatory (AID 624330). The format is functional.

Each structure is given as a SMILES string. Active and inactive are the calls of the source. Where only a bound is given, the exact number is not on record here.

Luciferin 4-monooxygenase, sequence (P08659 whole entry): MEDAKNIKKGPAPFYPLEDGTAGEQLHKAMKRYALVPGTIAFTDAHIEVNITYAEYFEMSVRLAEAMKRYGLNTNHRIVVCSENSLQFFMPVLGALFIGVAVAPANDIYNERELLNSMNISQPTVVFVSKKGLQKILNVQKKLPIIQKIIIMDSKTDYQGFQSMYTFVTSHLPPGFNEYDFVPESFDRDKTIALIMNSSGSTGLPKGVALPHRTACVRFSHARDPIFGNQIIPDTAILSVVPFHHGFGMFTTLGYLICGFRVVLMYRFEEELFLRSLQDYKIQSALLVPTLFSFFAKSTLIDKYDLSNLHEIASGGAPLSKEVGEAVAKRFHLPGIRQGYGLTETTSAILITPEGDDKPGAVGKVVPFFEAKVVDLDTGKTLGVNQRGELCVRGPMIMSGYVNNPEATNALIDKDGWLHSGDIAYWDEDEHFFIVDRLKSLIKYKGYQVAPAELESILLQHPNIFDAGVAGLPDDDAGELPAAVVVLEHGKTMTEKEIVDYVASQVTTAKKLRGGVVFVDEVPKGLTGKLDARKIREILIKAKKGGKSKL
Cytochrome P450 2C9, sequence (P11712 whole entry): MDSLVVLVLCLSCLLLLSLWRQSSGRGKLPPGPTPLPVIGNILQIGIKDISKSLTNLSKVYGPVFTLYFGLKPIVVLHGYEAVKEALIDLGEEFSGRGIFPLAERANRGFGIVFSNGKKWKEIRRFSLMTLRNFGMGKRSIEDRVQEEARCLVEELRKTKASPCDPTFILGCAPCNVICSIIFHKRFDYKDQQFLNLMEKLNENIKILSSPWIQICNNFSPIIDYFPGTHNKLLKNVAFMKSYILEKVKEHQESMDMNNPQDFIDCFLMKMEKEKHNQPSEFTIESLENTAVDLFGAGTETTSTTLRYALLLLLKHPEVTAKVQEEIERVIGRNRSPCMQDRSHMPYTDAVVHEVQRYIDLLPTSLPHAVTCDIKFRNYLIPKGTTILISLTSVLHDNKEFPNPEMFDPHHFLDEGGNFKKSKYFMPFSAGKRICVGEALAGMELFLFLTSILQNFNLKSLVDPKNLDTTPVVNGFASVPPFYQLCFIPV
Cytochrome P450 3A4, sequence (P08684 whole entry): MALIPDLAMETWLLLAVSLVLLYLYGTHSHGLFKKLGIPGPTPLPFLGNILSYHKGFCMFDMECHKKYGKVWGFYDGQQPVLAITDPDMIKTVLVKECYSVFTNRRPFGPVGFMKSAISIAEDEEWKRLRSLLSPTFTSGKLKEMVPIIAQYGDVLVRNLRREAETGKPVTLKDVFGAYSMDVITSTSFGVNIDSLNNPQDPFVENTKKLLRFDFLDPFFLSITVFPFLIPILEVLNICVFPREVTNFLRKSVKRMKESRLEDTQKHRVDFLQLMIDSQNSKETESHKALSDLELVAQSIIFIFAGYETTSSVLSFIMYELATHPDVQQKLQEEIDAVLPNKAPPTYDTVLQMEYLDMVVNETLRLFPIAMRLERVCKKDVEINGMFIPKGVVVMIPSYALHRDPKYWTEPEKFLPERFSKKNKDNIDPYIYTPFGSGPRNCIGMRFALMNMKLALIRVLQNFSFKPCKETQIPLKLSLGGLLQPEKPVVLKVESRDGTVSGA
Cytochrome P450 2C19, sequence (P33261 whole entry): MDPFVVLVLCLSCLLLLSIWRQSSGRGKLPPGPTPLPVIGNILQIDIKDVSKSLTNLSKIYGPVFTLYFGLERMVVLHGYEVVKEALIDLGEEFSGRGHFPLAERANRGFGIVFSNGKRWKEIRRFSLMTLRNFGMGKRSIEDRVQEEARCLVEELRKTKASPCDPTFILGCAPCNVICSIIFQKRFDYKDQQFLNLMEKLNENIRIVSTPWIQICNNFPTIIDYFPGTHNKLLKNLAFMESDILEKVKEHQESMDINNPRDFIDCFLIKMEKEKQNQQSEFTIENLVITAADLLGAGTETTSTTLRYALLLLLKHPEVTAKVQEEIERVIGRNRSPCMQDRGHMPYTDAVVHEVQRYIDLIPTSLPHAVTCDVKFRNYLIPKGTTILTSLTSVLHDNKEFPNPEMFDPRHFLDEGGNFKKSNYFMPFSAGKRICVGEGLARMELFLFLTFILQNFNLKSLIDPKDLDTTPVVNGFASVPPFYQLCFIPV

As to `Cc1ccccc1-c1ccc(CN2CCN(C)C(CCO)C2)cc1` (stereo not drawn), the values for the 50% effective concentration (EC50) in assay [1] and in assay [3] were 0.828 µM (active) and 4.69 µM (active), respectively. Further, in assay [2], the concentration at half-maximal activity (AC50) was 2.9 µM (active).

As to `O=C(c1ccco1)c1coc2c1cc(O)c1ccccc12`, the 50% effective concentration (EC50) in assay [4] is 65.4 µM (active); on Protein RecA, 48.7 µM (active). Further, the concentration at half-maximal activity (AC50) in [5] was 16.2 µM (active); in the assay with INS1, 27 µM (active).

`O=C(CC1(O)C(=O)N(Cc2ccccc2)c2ccccc21)c1ccncc1` (stereo not drawn): the EC50 in [6] and in assay [7] was > 112 µM (not active) in each case.

For the compound `O=[N+]([O-])c1ccc(N2CCC(=NOCc3ccc(Cl)cc3)CC2)cc1`, the AC50 is 14.1 µM (inconclusive) on Cytochrome P450 2C9, 4.47 µM (inconclusive) at Cytochrome P450 2C19 and 35.5 µM (inconclusive) at Cytochrome P450 3A4.

On to `COCCn1c(=O)c(-c2cn(C)c3ccccc23)nc2cnc(OCc3ccccc3)nc21`, for which the AC50 on Cytochrome P450 3A4 is 7.94 µM (inconclusive).

Consider `N=C(NOC(=O)c1ccc(Cl)cc1)c1[nH]ncc1Br`, for which the EC50 is 0.882 µM (active) in [6] and 4.36 µM (active) in [7].

Take `CC1(C)C(=O)N=C2C1=C(O)C(=O)c1ccccc12`: the concentration at half-maximal activity (AC50) at Cytochrome P450 2C9 was 25.1 µM (inconclusive); on Cytochrome P450 2C19 it was 31.6 µM (inconclusive); at Cytochrome P450 3A4 it was 31.6 µM (inconclusive).

With `Cc1ccc(-c2nn(-c3ccccc3)cc2/C=C/C(=O)Nc2cccc(S(N)(=O)=O)c2)cc1`, in the assay with INS1, the half-maximal activity concentration (AC50) was 3.29 µM (active).

As for `CCn1nc(C)c(C(=O)Nc2cc(Oc3cc(C)cc(C)c3)cc([N+](=O)[O-])c2)c1C`, the CC50 in assay [8] was 22.7 µM (active).

As for `CC1(C)CC(=O)C(C(C#Cc2ccccc2)C2=C(O)CC(C)(C)CC2=O)=C(O)C1`, the concentration at half-maximal activity (AC50) on Cytochrome P450 3A4 was 31.6 µM (inconclusive).

Consider `O=C(COc1ccc2ccccc2c1)NNC(=O)Cc1cccc2ccccc12`, for which the half-maximal activity concentration (AC50) was 0.398 µM (inconclusive) on Cytochrome P450 2C19 and 14.1 µM (inconclusive) at Cytochrome P450 3A4.

With `C/C(=N\Nc1nc(C)cc(-c2ccccc2)n1)c1cccc(N)c1`, the AC50 in the assay on INS1 was 2.76 µM (active).

Take `CC1(C)CC(=O)C2=C(C1)N=C(Nc1nc3ccccc3o1)NC2c1ccccn1` (stereo not drawn): the CC50 in [8] is > 40 µM (active).

For `O=C(Oc1ccccc1-c1nnco1)c1ccc(Cl)cc1`, the CC50 in assay [8] is 21.8 µM (active).

For the compound `CS(=O)(=O)N1CCC2(CCCN(C(=O)Nc3cccc(F)c3)C2)CC1`, the AC50 on Cytochrome P450 3A4 is 20 µM (inconclusive).

`CCN(CC)c1ccc(/N=C/c2ccccc2[N+](=O)[O-])cc1`: the IC50 in [9] was 30.5 µM (active). Also, the AC50 in the assay with INS1 was 33.2 µM (active).

As for `CN(C)CCOC(=O)CCc1ccccc1`, the EC50 in assay [6] and in assay [7] was > 112 µM (not active) each time.

With `Cc1cc(NC(=S)NC(=O)CC(C)C)ccc1Br`, the results for the AC50 on Cytochrome P450 2C9 and on Cytochrome P450 3A4 were 0.0447 µM (inconclusive) and 20 µM (inconclusive), respectively.

`CCCCC[C@H](O)/C=C/[C@H]1[C@H](O)CC(=O)[C@@H]1CCCCCCC(=O)O` [ALPROSTADIL]: the EC50 in assay [6] was > 112 µM (not active); in [7], < 0.088 µM (active).

`CCCCn1c(N)c(N(Cc2ccccc2OC)C(=O)C(C)Oc2ccc(Cl)cc2)c(=O)[nH]c1=O` (stereo not drawn): the EC50 in [6] and in assay [7] was > 112 µM (not active) in each case.

In the case of `CN(C)c1nc(NCc2ccccc2)nc(N/N=C/c2ccc3c(c2)OCO3)n1`, in assay [8], the CC50 was > 40 µM (active).

As for `O=C(O)/C=C/c1cccc(NC(=O)c2ccccc2)c1`, the concentration giving a half-maximal response (EC50) in assay [6] is 4.49 µM (active); in [7], 17.4 µM (active).

As for `COc1ccc(CN2CCCC(C(=O)c3cccc(OC(C)C)c3)C2)cc1Cn1cccn1` (stereo not drawn), the EC50 in assay [6] and in [7] was > 112 µM (not active) throughout.

In the case of `Cc1nn(CC(=O)Nc2cccnc2)c(C)c1[N+](=O)[O-]`, the EC50 is > 112 µM (not active) in [6] and 7.26 µM (active) in assay [7].

On to `Cc1cc(C(F)(F)F)nn1CC(=O)Nc1cccnc1`, for which the figures for the AC50 at Cytochrome P450 2C9, at Cytochrome P450 2C19 and at Cytochrome P450 3A4 were 39.8 µM (inconclusive), 22.4 µM (inconclusive) and 25.1 µM (inconclusive), respectively.

Turning to `Cn1c(=O)c(C(=O)COC(=O)c2cc(C(F)(F)F)nc3c(C(F)(F)F)cccc23)c(N)n(CC2CC2)c1=O`, the CC50 in assay [8] was > 40 µM (active).
